According to PubChem BioAssay (NCI):
“And” between values parts separate entries of the source, which are not always exact repeats. Equal entries are not always repeated.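 Results reflect a 48-hour exposure of cells in 96-well plates to compound at five concentrations. The concentration for 50% growth inhibition is given as GI50. TGI is the concentration that stops growth completely.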

Columns and labels:
Assay in all cases: NCI tumour cell line growth inhibition, 48 h
[1] = tested on: A498 renal
[2] = tested on: DLD-1 colon
[3] = tested on: KM12 colon
[4] = tested on: U251 CNS
[5] = tested on: SN12C renal
[6] = tested on: SW-620 colon
[7] = tested on: OVCAR-8 ovarian
[8] = tested on: SK-MEL-5 melanoma
[9] = tested on: DMS 273 small cell lung
[10] = tested on: UO-31 renal
[11] = tested on: OVCAR-3 ovarian
[12] = tested on: UACC-257 melanoma
[13] = tested on: IGROV1 ovarian
[14] = tested on: KM20L2 colon
[15] = tested on: CCRF-CEM leukemia
[16] = tested on: SNB-75 CNS
[17] = tested on: NCI-H522 lung
[18] = tested on: HCC-2998 colon
[19] = tested on: HT29 colon
[20] = tested on: SF-539 CNS
[21] = tested on: NCI-H226 lung
[22] = tested on: EKVX NSCLC
[23] = tested on: SK-MEL-2 melanoma
[24] = tested on: P388 leukemia
[25] = tested on: OVCAR-5 ovarian
[26] = tested on: HOP-18 NSCLC
[27] = tested on: CAKI-1 renal
[28] = tested on: OVCAR-4 ovarian
[29] = tested on: SNB-78 CNS
[30] = tested on: MCF7 breast
[31] = tested on: SK-OV-3 ovarian
[32] = tested on: HOP-92 NSCLC
[33] = tested on: MOLT-4 leukemia
[34] = tested on: RPMI-8226 leukemia
[35] = tested on: HCT-116 colon
[36] = tested on: P388/ADR leukemia
[37] = tested on: NCI/ADR-RES ovarian
[38] = tested on: DMS 114 small cell lung
[39] = tested on: SK-MEL-28 melanoma
[40] = tested on: SNB-19 CNS
[41] = tested on: NCI-H460 lung
[42] = tested on: RXF 393 renal
[43] = tested on: COLO 205 colon
[44] = tested on: LOX IMVI melanoma
[45] = tested on: XF 498 CNS
[46] = tested on: A549 NSCLC
[47] = tested on: HL-60(TB) leukemia
[48] = tested on: UACC-62 melanoma
[49] = tested on: SF-268 CNS
[50] = tested on: K-562 leukemia
[51] = tested on: HCT-15 colon
[52] = tested on: SN12K1 renal
[53] = tested on: NCI-H23 lung
[54] = tested on: HOP-62 NSCLC
[55] = tested on: SF-295 CNS
[56] = tested on: MALME-3M melanoma
[57] = tested on: M19-MEL melanoma

`CCCCCCNC(=O)C(C)C1CCC2(C)C=CC(=O)C(C)=C2C1O` (centres undefined) was tested, and the TGI [1] was greater than 100 µM, the TGI [2] was greater than 100 µM and the TGI [3] was greater than 100 µM. It also gave a TGI [4] greater than 100 µM, a TGI [5] greater than 100 µM and a TGI [6] greater than 100 µM. It also gave a TGI [7] greater than 100 µM, a TGI [8] greater than 100 µM and a TGI [9] greater than 100 µM. For the same compound, the TGI [10] was greater than 100 µM, the TGI [11] was greater than 100 µM and the TGI [12] was greater than 100 µM. For the same compound, the TGI [13] was greater than 100 µM, the TGI [14] was greater than 100 µM and the TGI [15] was greater than 100 µM. The TGI [16] was greater than 100 µM, the TGI [17] was greater than 100 µM and the TGI [18] was greater than 100 µM. For the same compound, the TGI [19] was greater than 100 µM, the TGI [20] was greater than 100 µM and the TGI [21] was greater than 100 µM. For the same compound, the TGI [22] was greater than 100 µM, the TGI [23] was greater than 100 µM and the TGI [24] was greater than 100 µM. For the same compound, the TGI [25] was greater than 100 µM, the TGI [26] was greater than 100 µM and the TGI [27] was greater than 100 µM. For the same compound, the TGI [28] was greater than 100 µM, the TGI [29] was greater than 100 µM and the TGI [30] was greater than 100 µM. The TGI [31] was greater than 100 µM, the TGI [32] was greater than 100 µM and the TGI [33] was greater than 100 µM. The TGI [34] was greater than 100 µM, the TGI [35] was greater than 100 µM and the TGI [36] was greater than 100 µM. The TGI [37] was greater than 100 µM, the TGI [38] was greater than 100 µM and the TGI [39] was greater than 100 µM. The TGI [40] was greater than 100 µM, the TGI [41] was greater than 100 µM and the TGI [42] was greater than 100 µM. It also gave a TGI [43] greater than 100 µM, a TGI [44] greater than 100 µM and a TGI [45] greater than 100 µM. The TGI [46] was greater than 100 µM, the TGI [47] was greater than 100 µM and the TGI [48] was greater than 100 µM. The TGI [49] was greater than 100 µM, the TGI [50] was greater than 100 µM and the TGI [51] was greater than 100 µM. For the same compound, the TGI [52] was greater than 100 µM, the TGI [53] was greater than 100 µM and the TGI [54] was greater than 100 µM. The TGI [55] was greater than 100 µM.
In the case of `C=C1C(=O)[C@@]23CC[C@H]4[C@@](C)(CCC[C@@]4(C)C(=O)OC)[C@@H]2CC[C@]1(O)C3`, the GI50 [1] is reported as 1.49 µM, the TGI [1] is reported as 3.09 µM and the TGI [2] is reported as 1.33 µM. The GI50 [3] was 1.97 µM, the TGI [3] was 3.6 µM and 5.81 µM and the GI50 [4] was 2.2 µM. The TGI [4] was 4.67 µM and 11.3 µM, the TGI [5] was 3.06 µM and 3.23 µM and the GI50 [6] was 0.878 µM. For the same compound, the TGI [6] was 2.84 µM and 1.85 µM, the TGI [7] was 2.96 µM and 2.85 µM and the TGI [8] was 3.65 µM. For the same compound, the GI50 [9] was 1.32 µM, the TGI [9] was 2.66 µM and 3.08 µM and the GI50 [10] was 1.63 µM. For the same compound, the TGI [10] was 3 µM and 4.03 µM, the TGI [11] was 3.48 µM and 3.25 µM and the GI50 [12] was 1.97 µM. The TGI [12] was 3.42 µM and 3.11 µM, the TGI [13] was 3.07 µM and 3 µM and the GI50 [14] was 1.91 µM. It also gave a TGI [14] of 3.83 µM, a TGI [15] greater than 100 µM and a GI50 [16] of 3.69 µM. For the same compound, the TGI [16] was 12 µM and 6.94 µM, the GI50 [56] was 2.51 µM and the TGI [56] was 9.8 µM. The TGI [17] was 2.94 µM, the TGI [18] was 8.55 µM and the GI50 [19] was 0.911 µM. For the same compound, the TGI [19] was 3.14 µM and 2.71 µM, the GI50 [20] was 3.53 µM and the TGI [20] was 11.2 µM and 3.18 µM. For the same compound, the GI50 [21] was 1.78 µM, the TGI [21] was 3.38 µM and 7.45 µM and the TGI [22] was 3.5 µM. The GI50 [23] was 1.5 µM, the TGI [23] was 2.82 µM and 3.12 µM and the TGI [24] was 0.424 µM. For the same compound, the GI50 [25] was 3.95 µM, the TGI [25] was 11.8 µM and 3.54 µM and the TGI [26] was 3.62 µM and 3.51 µM. The TGI [27] was 2.96 µM, the GI50 [28] was 1.69 µM and the TGI [28] was 3.12 µM and 3.31 µM. The GI50 [30] was 0.326 µM, the TGI [30] was 1.35 µM and 3.79 µM and the TGI [31] was 33.4 µM. For the same compound, the GI50 [32] was 1.48 µM, the TGI [32] was 2.88 µM and 3.21 µM and the TGI [33] was 0.98 µM. The TGI [34] was 0.969 µM, the TGI [35] was 2.21 µM and 2.17 µM and the TGI [36] was 0.224 µM. The TGI [37] was 2.87 µM, the TGI [39] was 3.24 µM and 3.32 µM and the GI50 [40] was 4.79 µM. The TGI [40] was 16.6 µM and 27.5 µM, the GI50 [41] was 1.8 µM and the TGI [41] was 3.45 µM and 13 µM. For the same compound, the GI50 [42] was 3.06 µM, the TGI [42] was 7.97 µM and the TGI [43] was 3.83 µM and 3.18 µM. The GI50 [44] was 1.34 µM, the TGI [44] was 2.64 µM and 2.22 µM and the TGI [45] was 3.17 µM and 3.15 µM. For the same compound, the TGI [46] was 10.4 µM and 10.6 µM, the GI50 [47] was 0.27 µM and the TGI [47] was 1.35 µM and 0.967 µM. For the same compound, the GI50 [48] was 1.33 µM, the TGI [48] was 2.78 µM and 2.95 µM and the GI50 [49] was 1.55 µM. For the same compound, the TGI [49] was 3 µM and 3.35 µM, the GI50 [50] was 0.463 µM and the GI50 [57] was 1.13 µM. For the same compound, the TGI [57] was 2.46 µM and 2.91 µM, the TGI [51] was 2.85 µM and 2.71 µM and the GI50 [52] was 1.67 µM. For the same compound, the TGI [52] was 3.15 µM and 2.82 µM, the GI50 [53] was 2.41 µM and the TGI [53] was 5.05 µM and 2.96 µM. For the same compound, the TGI [54] was 34.7 µM, the GI50 [55] was 9.14 µM and the TGI [55] was 21.9 µM and 18.1 µM.
